Publication PMC3909880 (Nature communications, 2013)

Test system: M. tuberculosis IAR2 mutant (mmpL3 S288T)
Format: cell-based, Mycobacterium tuberculosis

Row | Compound | MIC for IAR2 [mg/L] | Fold change in MIC for IAR2
1 | NNC(=O)c1ccncc1 [Isoniazid] | 0.04 | 
2 | C[C@H]1COc2c(N3CCN(C)CC3)c(F)cc3c(=O)c(C(=O)O)cn1c23 [Levofloxacin] | 0.25 | 
3 | CC(C)=CCC/C(C)=C/CNCCNC1C2CC3CC(C2)CC1C3 (stereo not shown) [SQ109] | 4 | 16
4 | NCC[C@H](O)C(=O)N[C@@H]1C[C@H](N)[C@@H](O[C@H]2O[C@H](CN)[C@@H](O)[C@H](O)[C@H]2O)[C@H](O)[C@H]1O[C@H]1O[C@H](CO)[C@@H](O)[C@H](N)[C@H]1O [Amikacin] | 1 | 
5 | CO[C@H]1/C=C/O[C@@]2(C)Oc3c(C)c(O)c4c(O)c(c(/C=N/N5CCN(C)CC5)c(O)c4c3C2=O)NC(=O)/C(C)=C\C=C\[C@H](C)[C@H](O)[C@@H](C)[C@@H](O)[C@@H](C)[C@H](OC(C)=O)[C@@H]1C [Rifampin] | 0.03125 | 0.25
6 | NC[C@H]1O[C@H](O[C@H]2[C@H](O)[C@@H](O[C@H]3O[C@H](CO)[C@@H](O)[C@H](N)[C@H]3O)[C@H](N)C[C@@H]2N)[C@H](O)[C@@H](O)[C@@H]1O [Kanamycin] | 2 | 
7 | CC[C@@H](CO)NCCN[C@@H](CC)CO [Ethambutol] | 1 | 
8 | Capreomycin | 1 | 
